Laboratory results from US8927500B2, “Peptidomimetic macrocycles” (Aileron Therapeutics, Inc., priority 2012, dated 2015).
Where a SMILES comes first, the peptide text is derived from it. Bridges are numbered along the chain shown (N, C = ends). [ ]: non-standard residue; d: D form. Trp(6-Cl) = N[C@@H](Cc1c[nH]c2cc(Cl)ccc12)C(=O)O; Phe(4-COOH) = N[C@@H](Cc1ccc(C(=O)O)cc1)C(=O)O; Phe(3,4-F2) = N[C@@H](Cc1ccc(F)c(F)c1)C(=O)O; R8 = C=CCCCCCC[C@@](C)(N)C(=O)O; Cba = N[C@@H](CC1CCC1)C(=O)O; S5 = C=CCCC[C@](C)(N)C(=O)O

What was measured:
MDM2 = MDM2 (Homo sapiens, UniProt Q00987); test: Competitive fluorescence polarization assay for MDM2; type: binding; conditions: competitive FP assay, MDM2; for IC50: read-out: IC50 (MDM2); for Ki: read-out: Ki (MDM2)
MDM2, sequence (Q00987 1-125): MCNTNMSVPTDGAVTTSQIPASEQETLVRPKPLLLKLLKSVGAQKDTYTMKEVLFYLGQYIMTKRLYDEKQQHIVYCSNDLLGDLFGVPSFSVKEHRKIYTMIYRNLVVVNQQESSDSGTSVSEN

MDMX = biological target: T1, MDMX (Homo sapiens, UniProt O15151); test: Competitive fluorescence polarization assay for MDMX; type: binding; conditions: competitive FP assay; for IC50: read-out: IC50 (MDMX); for Ki: read-out: Ki (MDMX)
T1 sequence (O15151 1-125): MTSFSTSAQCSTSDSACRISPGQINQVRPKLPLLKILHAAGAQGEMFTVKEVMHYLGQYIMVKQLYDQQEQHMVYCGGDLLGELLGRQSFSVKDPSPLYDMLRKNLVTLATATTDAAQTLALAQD

Row | SMILES | IC50 (MDM2) | Ki (MDM2) | IC50 (MDMX) | Ki (MDMX)
1 | CC(=O)N[C@@H](CC(C)C)C(=O)N[C@H](C(=O)N[C@@H](Cc1ccc(F)c(F)c1)C(=O)N[C@]1(C)CCCCCCC=CCCC[C@@](C)(C(=O)N[C@@H](CO)C(=O)N[C@@H](C)C(=O)N[C@@H](Cc2ccccc2)C(N)=O)NC(=O)[C@H](CC2CCC2)NC(=O)[C@H](CCC(N)=O)NC(=O)[C@H](C)NC(=O)[C@H](Cc2c[nH]c3ccccc23)NC(=O)[C@H](Cc2ccc(O)cc2)NC(=O)[C@H](C)NC1=O)[C@@H](C)O [compound 259] (Ac-LT[Phe(3,4-F2)][R8]AYWAQ[Cba][S5]SAF-NH2; staple 4-11) | 0.01 to 0.1 µM | < 0.01 µM | 0.01 to 0.1 µM | 0.01 to 0.1 µM
2 | CC(=O)N[C@@H](CC(C)C)C(=O)N[C@H](C(=O)N[C@@H](Cc1ccccc1)C(=O)N[C@]1(C)CCCCCCC=CCCC[C@@](C)(C(=O)N[C@@H](CO)C(=O)N[C@@H](C)C(=O)N[C@@H](Cc2ccccc2)C(N)=O)NC(=O)[C@H](CC2CCC2)NC(=O)[C@H](CCC(N)=O)NC(=O)[C@H](C)NC(=O)[C@H](Cc2c[nH]c3ccccc23)NC(=O)[C@H](Cc2ccc(C(=O)O)cc2)NC(=O)[C@H](C)NC1=O)[C@@H](C)O [compound 260] (Ac-LTF[R8]A[Phe(4-COOH)]WAQ[Cba][S5]SAF-NH2; staple 4-11) | 0.01 to 0.1 µM | < 0.01 µM | 0.01 to 0.1 µM | 0.01 to 0.1 µM
3 | CC(=O)N[C@@H](CC(C)C)C(=O)N[C@H](C(=O)N[C@@H](Cc1ccccc1)C(=O)N[C@]1(C)CCCCCCC=CCCC[C@@](C)(C(=O)N[C@@H](CO)C(=O)N[C@@H](C)C(=O)N[C@@H](Cc2ccccc2)C(N)=O)NC(=O)[C@H](CC2CCC2)NC(=O)[C@H](CCC(N)=O)NC(=O)[C@H](C)NC(=O)[C@H](Cc2c[nH]c3cc(Cl)ccc23)NC(=O)[C@H](Cc2ccc(O)cc2)NC(=O)[C@H](CCC(=O)O)NC1=O)[C@@H](C)O [compound 261] (Ac-LTF[R8]EY[Trp(6-Cl)]AQ[Cba][S5]SAF-NH2; staple 4-11) | 0.01 to 0.1 µM | < 0.01 µM | 0.1 to 1 µM | 0.01 to 0.1 µM
4 | CC(=O)N[C@@H](CC(C)C)C(=O)N[C@H](C(=O)N[C@@H](Cc1ccccc1)C(=O)N[C@]1(C)CCCCCCC=CCCC[C@@](C)(C(=O)N[C@@H](CO)C(=O)N[C@@H](C)C(=O)N[C@@H](Cc2ccccc2)C(N)=O)NC(=O)[C@H](CC2CCC2)NC(=O)[C@H](CCC(N)=O)NC(=O)[C@H](CO)NC(=O)[C@H](Cc2c[nH]c3ccccc23)NC(=O)[C@H](Cc2ccc(O)cc2)NC(=O)[C@H](C)NC1=O)[C@@H](C)O [compound 262] (Ac-LTF[R8]AYWSQ[Cba][S5]SAF-NH2; staple 4-11) | 0.01 to 0.1 µM | < 0.01 µM | 0.1 to 1 µM | 0.01 to 0.1 µM

Further lines, results first:

Row | IC50 (MDM2) | Ki (MDM2) | IC50 (MDMX) | Ki (MDMX) | SMILES
5 | 0.01 to 0.1 µM | < 0.01 µM | 0.1 to 1 µM | 0.01 to 0.1 µM | CC(=O)N[C@@H](CC(C)C)C(=O)N[C@H](C(=O)N[C@@H](Cc1ccccc1)C(=O)N[C@]1(C)CCCCCCC=CCCC[C@@](C)(C(=O)N[C@@H](CO)C(=O)N[C@@H](C)C(=O)N[C@@H](Cc2ccccc2)C(N)=O)NC(=O)[C@H](CC2CCC2)NC(=O)[C@H](CCC(N)=O)NC(=O)[C@H](Cc2c[nH]c3ccccc23)NC(=O)[C@H](Cc2c[nH]c3ccccc23)NC(=O)[C@H](Cc2ccc(O)cc2)NC(=O)[C@H](C)NC1=O)[C@@H](C)O [compound 263] (Ac-LTF[R8]AYWWQ[Cba][S5]SAF-NH2; staple 4-11)
6 | 0.01 to 0.1 µM | < 0.01 µM | 0.01 to 0.1 µM | 0.01 to 0.1 µM | CC[C@H](C)[C@H](NC(=O)[C@H](C)NC(=O)[C@H](C)NC(=O)[C@]1(C)CCCC=CCCCCCC[C@@](C)(NC(=O)[C@H](Cc2ccccc2)NC(=O)[C@@H](NC(=O)[C@H](CC(C)C)NC(C)=O)[C@@H](C)O)C(=O)N[C@@H](C)C(=O)N[C@@H](Cc2ccc(O)cc2)C(=O)N[C@@H](Cc2c[nH]c3ccccc23)C(=O)N[C@@H](C)C(=O)N[C@@H](CCC(N)=O)C(=O)N[C@@H](CC2CCC2)C(=O)N1)C(=O)N[C@H](C)C(N)=O [compound 264] (Ac-LTF[R8]AYWAQ[Cba][S5]AAI[dA]-NH2; staple 4-11)
